Data published in patent publication US20170105981A1, “METHODS FOR STABILIZING HYPOXIA INDUCIBLE FACTOR-2 ALPHA AS A METHOD FOR TREATING CANCER” (The Ohio State Innovation Foundation, priority 2011, published 2017).

Assays:
[1] = tested on: B16F10 murine melanoma cells; experiment: Murine melanoma tumor model (B16F10 in C57BL/6 mice); format: in vivo; details: for tumor growth: FIG. 14A
Description: Mice were injected with 1×10^5 B16F10 murine melanoma cells murine subcutaneously on the left flank. Once tumors become palpable (approximately 5 days), mice were randomly allocated to receive treatment with either: 20% polyethylene glycol (PEG) in 5% […] (vehicle control for the disclosed HIF-2α stabilizer) and PBS (vehicle control for GM-CSF), 20% PEG and GM-CSF (100 ng per mouse in a 50 μL volume), the disclosed HIF-2α stabilizer (17.5 mg/kg in a 100 μL volume) and PBS, or the disclosed HIF-2α stabilizer and GM-CSF (same doses). The PBS and GM-CSF were administered intratumorally, while the 20% PEG and the disclosed HIF-2α stabilizer were administered intraperitoneally. Mice were treated 3 times per week until tumors reached a size of 20 mm in any dimension (approximately 2.5 weeks), at which point mice were euthanized, in accordance with institutional policy. Tumor diameters were measured 3 times per week with calipers, and tumor volumes were calculated as follows: Tumor volume=0.5×[(large diameter)×(small diameter)^2].
6-8-week-old C57BL/6 mice were injected with 1×10^5 B16F10 murine melanoma cells murine subcutaneously on the left flank. Once tumors become palpable (approximately 5 days), mice were randomly allocated to receive treatment with either: 20% PEG-400 in 5% sucrose (vehicle for disclosed HIF-2α stabilizer) and PBS (vehicle for GM-CSF), 20% PEG-400 and GM-CSF (100 ng per mouse in a 50 μL volume), disclosed HIF-2α stabilizer (17.5 mg/kg mouse weight in a 100 μL volume) and PBS, or the disclosed HIF-2α stabilizer and GM-CSF (same concentrations). The disclosed HIF-2α stabilizer (or the vehicle control) was administered intraperitoneally, while GM-CSF (or the vehicle control) was administered intratumorally. Mice were treated […] 3 times per week until tumors reached a size of 20 mm in any dimension (approximately 2.5 weeks), at which point mice were be euthanized, in accordance with institutional policy. Tumor diameters were measured 3 times per week with calipers, and tumor volumes will be calculated as follows: Tumor volume=0.5×[(large diameter)×(small diameter)^2]. For experiments analyzing the effect of neutralizing sVEGFR-1 in combination with disclosed HIF-2α stabilizer treatment, mice were treated intraperitoneally 3×/week with either disclosed HIF-2α stabilizer or vehicle control, and intratumorally with either 4 μg anti-VEGFR-1 neutralizing antibody (R&D Systems) or 4 μg polyclonal goat IgG isotype control (Santa Cruz Biotechnology) in a 50 μL volume. All protocols were approved by the Ohio State University Animal Care and Use Committee, and mice were treated in accordance with institutional guidelines for animal care.
The ANOVA test was used to compare independent measurements between multiple treatment groups. The data was log-transformed to normalize the variance across groups. P-values were adjusted using the Holm's procedure to conserve the type I error at 0.05 due to the multiple comparisons. For tumor growth data, changes in tumor volume over time were assessed via a longitudinal model. Tumor values were log-transformed, and estimated slopes (changes in tumor volume over time) were calculated with 95% confidence intervals. Estimated differences in tumor volume were calculated by a random-effects regression of the longitudinal data. For all analyses, p≦0.05 was considered statistically significant.
6-8-week-old C57BL/6 mice or SCID mice were injected with 1×10^5 B16F10 murine melanoma cells or 1×10^6 A375 human melanoma cells, respectively, subcutaneously on the left flank. […]

HIF-1α = experiment: Immunoblot for HIF-1α in murine bone marrow-derived macrophages; format: cell-based; details: murine bone marrow-derived macrophages treated 18 hours; p=0.105; FIG. 11A
Description: To generate bone marrow-derived macrophages (BDMs), femoral bone marrow was isolated and progenitor cells were plated in RPMI-1640 supplemented with 10% FBS, 1% PSA, 10 μg/mL of polymyxin B, and 20 ng/mL of recombinant murine M-CSF. Cells were cultured for 5 days with the addition of fresh M-CSF every other day. Differentiated BDM were serum-starved for 2 hours and then treated with 100 ng/mL of murine GM-CSF and/or 25 μM the disclosed HIF-2α stabilizer in RPMI-1640 containing 1% FBS and 10 μg/mL polymixin B. Culture supernatants were collected after 72 hours and assayed for VEGF and sVEGFR-1 content by ELISA (R&D Systems).
In order to confirm the selective upregulation of HIF-2α by the disclosed HIF-2α stabilizer, murine bone marrow-derived macrophages were treated with the disclosed HIF-2α stabilizer for 18 hours, and cells were then lysed and immunoblotted for HIF-1α and HIF-2α.

sVEGFR-1 = sVEGFR-1 production by human peripheral blood monocytes (ELISA, real-time PCR); format: cell-based; details: monocytes with 100 ng/mL GM-CSF plus 10 μM compound vs GM-CSF alone, FIG. 11B
Description: Human peripheral blood mononuclear cells (PBMCs) were isolated from fresh peripheral blood leukocyte source packs (American Red Cross, Columbus Ohio) by density gradient centrifugation over Lymphocyte Separation Medium (Cellgro). Monocytes were purified from total PBMCs by layering over FBS. Monocytes were cultured in endotoxin-free RPMI-1640 supplemented with 1% fetal bovine serum (FBS), 0.1% human serum albumin (HSA), and 10 μg/mL of the endotoxin inhibitor polymyxin B. In some experiments, freshly isolated monocytes were differentiated into macrophages by three-day culture in media containing 10% FBS, 1% PSA (penicillin G sodium, streptomycin sulfate, and amphotericin B), and 20 ng/mL M-CSF. Macrophages were serum-starved for 2 hours prior to stimulation. Monocytes or monocyte-derived macrophages were treated for 24 hours with 10 ng/mL GM-CSF, 10 μM disclosed HIF-2α stabilizer, or an equivalent volume of the vehicle controls (PBS or DMSO, respectively). Cell-free culture supematants were harvested and analyzed for VEGF or sVEGFR-1 by ELISA (R&D Systems).
Human monocytes were left untreated or were stimulated with 100 ng/mL GM-CSF at normoxia or at 0.5% O2. At various time-points, cells were harvested in Trizol reagent (Invitrogen) and RNA was extracted in chloroform and then purified using the RNeasy Minikit (Qiagen). In murine studies, organs harvested at the time of euthanasia were flash-frozen in liquid nitrogen, pulverized in liquid nitrogen, and then dissolved in Trizol. cDNA was generated from 1 μg of RNA using the Superscript First Strand Synthesis System (Invitrogen) and used for real-time PCR using previously described primers and SYBR Green PCR Master Mix (Applied Biosciences), according to the manufacturer's instructions. Data were analyzed according to the comparative threshold method and normalized against the β-actin internal control transcript. Results are semi-quantitative and represent the fold difference in transcript levels in a particular sample as compared with levels in untreated cells from the same donor.

## O=C(O)CNC(=O)c1ncc(-c2cccc(F)c2)cc1O [disclosed HIF-2α stabilizer, {[5-(3-Fluorophenyl)-3-hydroxypyridine-2-carbonyl]amino} acetic acid]
[1]; B16F10 melanoma, stabilizer 17 mg/kg I.P., GM-CSF I.T., vs PBS control, FIG. 3
  tumor growth / tumor volume: reduces tumor growth
[1]; B16F10 melanoma-bearing mice, stabilizer alone, p=0.023, FIG. 12B
  increase in median survival (time to a tumor diameter of 20 mm): 3 days
[1]; day 16 of treatment, 3×/week, GM-CSF 100 ng/mouse intratumoral, stabilizer 17.5 mg/kg intraperitoneal, each p<0.001
  average tumor volumes vs vehicle controls: significantly smaller
[1]; mice also treated with anti-sVEGFR-1 neutralizing antibody, p=0.245
  tumor growth: no effect
[1]; mice treated with isotype control antibody, p<0.001
  tumor growth: decreased tumor growth
HIF-1α
  HIF-1α protein: no corresponding increase
sVEGFR-1; p=0.007
  sVEGFR-1 production, protein level: increased significantly
sVEGFR-1; p=0.033
  sVEGFR-1 production, transcript level: increased significantly
